Patent US12589099B2 (priority 2021, dated 2026)

Assays:
total Tau = experiment: Total Tau immunostaining 35 days post-TBI; assay type: in vivo, male Wistar rats; conditions: 4.5 mg/kg IN twice daily, cortex, DG, CA3, CA1 of ipsilateral hemisphere
Description: Young adult (2-3 months) male Wistar rats were subjected to a moderate traumatic brain injury (TBI) induced by controlled cortical impact (CCI). Animal models of TBI including the CCI model and functional tests have been described in detail in peer reviewed publications (Xiong et al., 2013, Nat Rev Neurosci.; Zhang et al., 2016, J Neurosurg.; Zhang et al., 2016, Neurochem Int.; Zhang et al., 2021, J Neurotrauma). Injury consisted of a single impact at 4.0 m/sec, 2.5 mm deformation to the left parietal cortex. In addition, a group of animals was left healthy/not injured to serve as a healthy control.
The substance used in this study was ALPHA-1062 at 4.5 mg/kg. […]
Histological assessment was performed including quantitative image analysis protocols; followed by statistical analysis of the data. […]
For cell counting and quantitation NeuN+ cells were examined in the ipsilateral cortex, DG, CA1, and CA3 regions of the ipsilateral hippocampus. […] The number of BrdU+ cells (red-fluorophore) and NeuN (green-fluorophore)/BrdU-colabeled cells (yellow after merge) were counted. […] The immune-positive cells were determined and divided by the measured areas and presented as numbers per square mm. […] Tau or p-Tau immunoreactive areas including cortex, dentate gyrus, CA3 and CA1 regions of the ipsilateral hemisphere were imaged and quantified by Image J software (NIH).

[1] = tested on: moderate traumatic brain injury (TBI) induced by controlled cortical impact (CCI); experiment: Novel object recognition (NOR) test after TBI; assay type: in vivo, male Wistar rats
Experimental: FIG. 2: The figure illustrates functional tests that are carried out on healthy (sham surgery) no treatment, vehicle treated and ALPHA-1062 treated rats to assess sensorimotor and cognitive function after TBI. Sensimotor function tests. a) The figure depicts tests to assess the modified neurological severity score (mNSS). […] The animal is required to balance over a grid and the frequency of steps missing the grid are counted. This test assesses the functionality of the injured parietal cortex of the rat's brain. c) The adhesive removal test consists of applying adhesive tape on each forepaw of the animal and measuring the time-to-contact and the time-to-remove them. This behavior requires correct paw and mouth sensitivity (time-to-contact) and correct dexterity (time-to-remove). Cognitive function tests: a) This picture illustrates the Morris water maze that comprises that a rat is placed in a large circular pool (picture on the left) and is required to find an invisible platform that allows it to escape the water by using various visuo-spatial cues. This test is used to study spatial learning and memory and assesses hippocampal and select cortical brain region function. Usually, the path of the rat through the pool is tracked (picture on the right) and the time spend in the proximity of the platform as well as the time needed until the platform is found by the rat are measured. b) For the new/novel object recognition (NOR) test, after a habituation time in the test space (picture on far left) rats are given the opportunity to explore two identical objects (A) for a predetermined period of time (picture in the middle). After a delay, the animals are then presented with two objects to explore, one of which is the same as in the first exploration trial (A), the other a new object (B) (picture on the right). […]

## COc1ccc2c3c1O[C@H]1C[C@@H](OC(=O)c4ccccc4)C=C[C@@]31CCN(C)C2 [ALPHA-1062, (4aS,6R,8aS)-5,6,9,10,11,12-hexahydro-3-methoxy-11-methyl-4aH-[1]benzofuro[3a,3,2-ef][2]benzazepin-6-ol benzoate]
Total Tau
  total Tau protein: does not alter total Tau protein
[1]; 4.5 mg/kg IN twice daily, 5 weeks after TBI
  NOR, percentage of time spent exploring novel object (B) vs familiar object: statistically significant preference for the novel object
[1]; rats after TBI, compared to healthy sham animals
  Novel Object Recognition, performance over SHAM: equivalent to
[1]; rats after TBI, compared to vehicle treatment
  Novel Object Recognition, performance over VEHICLE: superior
